Target: T1, cPLA2 (Homo sapiens, UniProt P47712)
T1 sequence (P47712 1-749): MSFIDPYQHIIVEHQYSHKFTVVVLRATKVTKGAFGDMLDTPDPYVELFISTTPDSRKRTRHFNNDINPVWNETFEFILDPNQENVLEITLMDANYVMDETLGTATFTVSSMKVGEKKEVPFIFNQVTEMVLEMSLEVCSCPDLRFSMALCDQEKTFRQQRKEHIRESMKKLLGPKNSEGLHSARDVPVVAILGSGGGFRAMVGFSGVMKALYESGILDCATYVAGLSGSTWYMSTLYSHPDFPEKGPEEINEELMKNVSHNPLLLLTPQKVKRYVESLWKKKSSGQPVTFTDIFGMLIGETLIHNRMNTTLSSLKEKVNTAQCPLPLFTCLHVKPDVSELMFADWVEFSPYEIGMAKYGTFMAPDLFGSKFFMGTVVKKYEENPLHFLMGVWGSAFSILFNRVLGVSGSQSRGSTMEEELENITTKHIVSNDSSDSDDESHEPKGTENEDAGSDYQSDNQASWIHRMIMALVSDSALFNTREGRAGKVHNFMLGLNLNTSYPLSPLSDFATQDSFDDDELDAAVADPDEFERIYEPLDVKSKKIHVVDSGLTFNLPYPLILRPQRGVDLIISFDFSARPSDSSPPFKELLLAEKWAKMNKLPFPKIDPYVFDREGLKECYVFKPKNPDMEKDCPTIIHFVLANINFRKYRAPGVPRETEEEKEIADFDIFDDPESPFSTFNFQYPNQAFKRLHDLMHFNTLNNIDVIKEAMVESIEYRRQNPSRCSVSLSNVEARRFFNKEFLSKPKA
Test: cPLA2 Inhibitory Activity
Assay type: biochemical
Settings: 1-palmitoyl-2-[14C]-arachidonoyl-sn-glycero-3-phosphocholine 2.5 μM, sn-1,2-dioleoylglycerol 1.25 μM; pH 7.5, 15 min at 37° C.
Description: Test Example 1 cPLA2 Inhibitory Activity The compounds of the present invention were tested for the cPLA2 inhibitory activity according to the method disclosed in […]. Roberts, […], and J. E. Putnam, J. Biol. Chem., 1991, 266, 5268-5272 as outlined below. […] The reaction mixture includes 50 mM HEPES buffer (pH 7.5), 1 mM calcium chloride, 150 mM sodium chloride, 0.1 mg/ml bovine serum albumin, and 1.7 mM dithiothreitol. To the reaction mixture was added the compound of the present invention and the substrate solution. The reaction was allowed to start by adding an enzyme and continued for 15 min at 37° C. The fatty acids released by the reaction were extracted by the method described in V. P. Dole, and H. Meinertz, J. Biol. Chem., 1960, 235, 2595-2599 and its radiation activity was measured on a liquid scintillation counter. Control was obtained by conducting the experiment in the same manner except that a compound of the present invention was not added.

SMILES | IC50 [nM]
O=C1NC(=O)C(CCCc2ccc(C(=O)NC[C@@H]3C[C@@H](OCc4ccccc4-c4ccccc4)CN3C(=O)c3ccccc3C(=O)c3ccc(F)cc3)cc2)S1 (stereo partly drawn) [Compound A-51] | 180
O=C1NC(=O)/C(=C/c2cccc(C(=O)NC[C@@H]3C[C@@H](OCc4ccccc4-c4ccccc4)CN3C(=O)c3ccccc3C(=O)c3ccc(F)cc3)c2)S1 [Compound A-56] | 2500
O=C1NC(=S)S/C1=C\c1ccc(/C=C/C[C@@H]2C[C@@H](OCc3ccccc3-c3ccccc3)CN2C(=O)c2ccccc2C(=O)c2ccc(F)cc2)cc1 [Compound E-13] | 77
O=C1NC(=O)/C(=C/c2ccc(C(=O)NC[C@@H]3C[C@@H](Oc4ccc5c6c4CCCN6CCC5)CN3C(=O)c3ccccc3C(=O)c3ccc(F)cc3)cc2)S1 [Compound A-92] | 57
Cc1c(CO[C@@H]2C[C@@H](CNC(=O)c3ccc(/C=C4\SC(=O)NC4=O)cc3)N(C(=O)c3ccccc3C(=O)c3ccc(F)cc3)C2)cccc1-c1ccccc1 [Compound A-31] | 200
O=C1NC(=O)/C(=C/c2ccc(C(=O)NC[C@@H]3C[C@@H](OCc4ccccc4-c4ccccc4)CN3C(=O)c3ccccc3C(=O)c3ccc(F)cc3)o2)S1 [Compound A-64] | 2200
O=C1NC(=O)/C(=C/c2ccc(C(=O)NC[C@@H]3C[C@@H](Oc4ccccc4-c4cccnc4)CN3C(=O)c3ccccc3C(=O)c3ccc(F)cc3)cc2)S1 [Compound A-105] | 150
O=C1NC(=O)/C(=C/c2ccc(C(=O)NC[C@@H]3C[C@@H](OCc4ccccc4-c4ccccc4)CN3C(=O)c3ccccc3C(=O)c3ccc(F)cc3)cc2)O1 [Compound A-54] | 140
O=C1NC(=O)/C(=C/c2ccc(C(=O)NC[C@@H]3C[C@@H](OCc4ccccc4-c4ccccc4)CN3C(=O)/C=C\C(=O)c3ccccc3)cc2)S1 [Compound A-8] | 24000
CC(C)c1cccc(-c2cccc3ccccc23)c1O[C@@H]1C[C@@H](CNC(=O)c2ccc(/C=C3\SC(=O)NC3=O)cc2)N(C(=O)c2ccccc2C(=O)c2ccc(F)cc2)C1 [Compound A-114] | 20
O=C1NC(=S)S/C1=C\c1ccc(CCC[C@@H]2C[C@@H](OCc3ccccc3-c3ccccc3)CN2C(=O)c2ccccc2C(=O)c2ccc(F)cc2)cc1 [Compound E-10] | 790
O=C1NC(=O)/C(=C/c2ccc(/C=C/[C@@H]3C[C@@H](OCc4ccccc4-c4ccccc4)CN3C(=O)c3ccccc3C(=O)c3ccc(F)cc3)s2)S1 [Compound E-8] | 1400
CC(C)Cc1cccc(-c2cccc3ccccc23)c1O[C@@H]1C[C@@H](CNC(=O)c2ccc(/C=C3\SC(=O)NC3=O)cc2)N(C(=O)c2ccccc2C(=O)c2ccc(F)cc2)C1 [Compound A-125] | 6.6
O=C1NC(=O)/C(=C/c2ccc(C(=O)NC[C@@H]3C[C@@H](OCc4ccccc4-c4ccccc4)CN3C(=O)CCC(=O)c3ccccc3)cc2)S1 [Compound A-7] | 5000
O=C1NC(=O)C(=CC2CCN(C(=O)[C@@H]3C[C@@H](OCc4ccccc4-c4ccccc4)CN3C(=O)c3ccccc3C(=O)c3ccc(F)cc3)CC2)S1 [Compound B-9] | 14000
O=C1NC(=O)/C(=C/c2ccc(C(=O)NC[C@@H]3C[C@@H](Oc4cccc(-c5cccc(O)c5)c4)CN3C(=O)c3ccccc3C(=O)c3ccc(F)cc3)cc2)S1 [Compound A-106] | 200
COc1cccc(-c2cccc(O[C@@H]3C[C@@H](CNC(=O)c4ccc(/C=C5\SC(=O)NC5=O)cc4)N(C(=O)c4ccccc4C(=O)c4ccc(F)cc4)C3)c2)c1 [Compound A-99] | 37
O=C1NC(=O)/C(=C/c2ccc(/C=C\[C@@H]3C[C@@H](OCc4ccccc4-c4ccccc4)CN3C(=O)c3ccccc3C(=O)c3ccc(F)cc3)s2)S1 [Compound E-6] | 1500
O=C(COc1ccc(/C=C2\SC(=O)NC2=O)cc1)NC[C@@H]1C[C@@H](OCc2ccccc2-c2ccccc2)CN1C(=O)c1ccccc1C(=O)c1ccc(F)cc1 [Compound A-50] | 670

More lines, now with the values ahead:

IC50 [nM] | SMILES
2800 | CC(=O)N(Cc1ccc(/C=C2\SC(=O)NC2=O)cc1)C[C@@H]1C[C@@H](OCc2ccccc2-c2ccccc2)CN1C(=O)c1ccccc1C(=O)c1ccc(F)cc1 [Compound G-7]
1400 | CN(Cc1ccccc1)[C@@H]1C[C@@H](CNC(=O)c2ccc(/C=C3\SC(=S)NC3=O)cc2)N(C(=O)c2ccccc2C(=O)c2ccc(F)cc2)C1 [Compound M-2]
2400 | CN(C(=O)[C@@H]1C[C@@H](OCc2ccccc2-c2ccccc2)CN1C(=O)c1ccccc1C(=O)c1ccc(F)cc1)c1ccc(/C=C2\SC(=O)NC2=O)cc1 [Compound G-10]
13 | CC(C)CN(C(c1ccccc1)c1ccccc1)[C@@H]1C[C@@H](CNC(=O)c2ccc(/C=C3\SC(=O)NC3=O)cc2)N(C(=O)c2ccccc2C(=O)c2ccc(F)cc2)C1 [Compound M-13]
2800 | CN(C(=O)[C@@H]1C[C@@H](OCc2ccccc2-c2ccccc2)CN1C(=O)c1ccccc1C(=O)c1ccc(F)cc1F)c1ccc(/C=C2\SC(=S)NC2=O)cc1 [Compound G-12]
6.4 | CC(C)CN(C(c1ccccc1)c1ccccc1)[C@@H]1C[C@@H](CNC(=O)/C=C/c2ccc(/C=C3\SC(=O)NC3=O)cc2)N(C(=O)c2ccccc2C(=O)c2ccc(F)cc2)C1 [Compound M-20]
1100 | O=C1NC(=S)S/C1=C\c1ccc(CN(C[C@@H]2C[C@@H](OCc3ccccc3-c3ccccc3)CN2C(=O)c2ccccc2C(=O)c2ccc(F)cc2)C(=O)c2ccccc2)cc1 [Compound G-8]
5400 | CN(Cc1ccc(/C=C2\SC(=S)NC2=O)cc1)C[C@@H]1C[C@@H](OCc2ccccc2-c2ccccc2)CN1C(=O)c1ccccc1C(=O)c1ccc(F)cc1 [Compound G-2]
69 | CCN(Cc1ccccc1-c1ccccc1)[C@@H]1C[C@@H](C(=O)Nc2ccc(/C=C3\SC(=O)NC3=O)cc2)N(C(=O)c2ccccc2C(=O)c2ccc(F)cc2)C1 [Compound N-4]
10000 | O=C1NC(=S)SC1=C[C@@H]1C[C@@H](OCc2ccccc2-c2ccccc2)CN1C(=O)c1ccccc1C(=O)c1ccc(F)cc1 [Compound H-1]
140 | CC(C)N(Cc1ccccc1)[C@@H]1C[C@@H](CNC(=O)c2ccc(/C=C3\SC(=S)NC3=O)cc2)N(C(=O)c2ccccc2C(=O)c2ccc(F)cc2)C1 [Compound M-4]
3.1 | CC(C)CN(Cc1ccccc1-c1ccccc1)[C@@H]1C[C@@H](CNC(=O)/C=C/c2ccc(/C=C3\SC(=O)NC3=O)cc2)N(C(=O)c2ccccc2C(=O)c2ccc(F)cc2)C1 [Compound M-19]
1300 | O=C1NC(=O)/C(=C/c2ccc(CN(C[C@@H]3C[C@@H](OCc4ccccc4-c4ccccc4)CN3C(=O)c3ccccc3C(=O)c3ccc(F)cc3)C(=O)c3ccccc3)cc2)S1 [Compound G-9]
4000 | CN(C(=O)[C@@H]1C[C@@H](OCc2ccccc2-c2ccccc2)CN1C(=O)c1ccccc1C(=O)c1ccc(F)cc1)c1ccc(/C=C2\SC(=S)NC2=O)cc1 [Compound G-11]
8600 | O=C1NC(=O)/C(=C/C2CCN(C(=O)[C@@H]3C[C@@H](SCc4ccccc4-c4ccccc4)CN3C(=O)c3ccccc3C(=O)c3ccc(F)cc3)CC2)S1 [Compound J-5]
15000 | O=C1NC(=O)/C(=C/c2ccc(C(=O)NCCC[C@@H]3C[C@@H](OCc4ccccc4-c4ccccc4)CN3C(=O)c3ccccc3C(=O)c3ccc(F)cc3)cc2)S1 [Compound F-1]
240 | CCN(Cc1ccccc1-c1ccccc1)[C@@H]1C[C@@H](C(=O)Nc2ccc(/C=C3\SC(=S)NC3=O)cc2)N(C(=O)c2ccccc2C(=O)c2ccc(F)cc2)C1 [Compound N-5]

Reference: patent US6147100A, “Pyrrolidine derivatives having phospholipase A2 inhibitory activity” (Shionogi & Co., Ltd., priority 1997, dated 2000)
